Patent US8895587B2, “Insecticidal compounds based on arylthioacetamide derivatives” (Syngenta Participations AG, priority 2011, dated 2014)

What was measured:
Format in all cases: in vivo
Heliothis virescens [1] = assay: Heliothis virescens (tobacco budworm) egg/larval test on artificial diet; conditions: 96 h, application rate 200 ppm (concentration in well 18 ppm), eggs on artificial diet, 4 days
Experimental: Eggs (0-24 h old) were placed in 24-well microtiter plate on artificial diet and treated with test solutions at an application rate of 200 ppm (concentration in well 18 ppm) by pipetting. After an incubation period of 4 days, samples were checked for egg mortality, larval mortality, and growth regulation.

Tetranychus urticae = Tetranychus urticae (two-spotted spider mite) leaf disc test; conditions: foliar, 192 h, application rate 200 ppm, bean leaf discs, 8 days
From the text: Bean leaf discs on agar in 24-well microtiter plates were sprayed with test solutions at an application rate of 200 ppm. After drying, the leaf discs are infested with mite populations of mixed ages. 8 days later, discs are checked for egg mortality, larval mortality, and adult mortality.

Plutella xylostella [2] = assay: Plutella xylostella (diamond back moth) larval test on artificial diet; conditions: 144 h, application rate 200 ppm (concentration in well 18 ppm), L2 larvae on artificial diet, 6 days
Experimental: (§1) 24-well microtiter plate (MTP) with artificial diet was treated with test solutions at an application rate of 200 ppm (concentration in well 18 ppm) by pipetting. After drying, the MTP's were infested with L2 larvae (7-12 per well). After an incubation period of 6 days, samples were checked for larval mortality and growth regulation.

Diabrotica balteata [3] = assay: Diabrotica balteata (corn root worm) larval test on artificial diet; conditions: 120 h, read-out: Control/% Diabrotica balteata Corn rootworm; for pest or weed control at 3 ppm: application rate 3 ppm; for pest or weed control at 12 ppm: application rate 12 ppm; for pest or weed control at 50 ppm: application rate 50 ppm
Heliothis virescens [4] = assay: Heliothis virescens (tobacco budworm) egg/larval test on artificial diet; conditions: 96 h; for pest or weed control at 0.8 ppm: application rate 0.8 ppm; for pest or weed control at 3 ppm: application rate 3 ppm
Plutella xylostella [5] = assay: Plutella xylostella (diamond back moth) larval test on artificial diet; conditions: 144 h; for pest or weed control at 0.8 ppm: application rate 0.8 ppm; for pest or weed control at 3 ppm: application rate 3 ppm
Thrips tabaci = Thrips tabaci (onion thrips) leaf disc test; conditions: foliar, 168 h, application rate 200 ppm, sunflower leaf discs, 7 days
Experimental: Sunflower leaf discs were placed on agar in a 24-well microtiter plate and sprayed with test solutions at an application rate of 200 ppm. After drying, the leaf discs were infested with a thrips population of mixed ages. After an incubation period of 7 days, samples were checked for mortality.

Myzus persicae = Myzus persicae (green peach aphid), systemic test; conditions: 144 h, application rate 12.5 ppm, roots of pea seedlings in test solution, 6 days
From the text: Myzus persicae (Green peach aphid), systemic test: Roots of pea seedlings, infested with an aphid population of mixed ages, are placed directly in the test solutions at an application rate of 12.5 ppm. 6 days after introduction, samples are checked for mortality and special effects on the plant. The following compounds gave at least 80% control of Myzus persicae: […]

Spodoptera littoralis = Spodoptera littoralis (Egyptian cotton leafworm) leaf disc test; conditions: foliar, 72 h, application rate 200 ppm, cotton leaf discs, L1 larvae, mortality, feeding behavior, growth regulation 3 DAT
From the text: Spodoptera littoralis (Egyptian Cotton Leafworm): Cotton leaf discs were placed on agar in a 24-well microtiter plate and sprayed with test solutions at an application rate of 200 ppm. After drying, the leaf discs were infested with 5 L1 larvae. The samples were checked for mortality, feeding behavior, and growth regulation 3 days after treatment (DAT).

Diabrotica balteata [6] = assay: Diabrotica balteata (corn root worm) larval test on artificial diet; conditions: 120 h, application rate 200 ppm (concentration in well 18 ppm), L2 larvae on artificial diet, 5 days
Experimental: as §1, with “Diabrotica balteata (Corn Root Worm): A 24-well” for “24-well”, “(6-10” for “(7-12”, “5” for “6”

SMILES | pest or weed control at 200 ppm (Heliothis virescens [1]) | pest or weed control at 200 ppm (Tetranychus urticae) | pest or weed control at 200 ppm (Plutella xylostella [2]) | pest or weed control at 0.8 ppm (Diabrotica balteata [3]; application rate 0.8 ppm) | pest or weed control at 3 ppm (Diabrotica balteata [3]) | pest or weed control at 12 ppm (Diabrotica balteata [3]) | pest or weed control at 0.2 ppm (Heliothis virescens [4]; application rate 0.2 ppm) | pest or weed control at 0.8 ppm (Heliothis virescens [4]) | pest or weed control at 3 ppm (Heliothis virescens [4]) | pest or weed control at 0.2 ppm (Plutella xylostella [5]; application rate 0.2 ppm) | pest or weed control at 0.8 ppm (Plutella xylostella [5]) | pest or weed control at 3 ppm (Plutella xylostella [5]) | pest or weed control at 200 ppm (Thrips tabaci) | pest or weed control at 12.5 ppm (Myzus persicae) | pest or weed control at 50 ppm (Diabrotica balteata [3]) | pest or weed control at 200 ppm (Spodoptera littoralis) | pest or weed control at 200 ppm (Diabrotica balteata [6])
Cc1cc(C2=NO[C@@](c3cc(Cl)cc(Cl)c3)(C(F)(F)F)C2)ccc1SCC(=O)NCC(F)(F)F [Compound C1, 2-{4-[(S)-5-(3,5-Dichloro-phenyl)-5-trifluoromethyl-4,5-dihydro-isoxazol-3-yl]-2-methyl-phenylsulfanyl}-N-(2,2,2-trifluoro-ethyl)-acetamide] | ≥ 80% | ≥ 80% | ≥ 80% | 80% | 100% | 100% | 80% | 80% | 100% | 80% | 100% | 100% | ≥ 80% | ≥ 80% | – | – | –
Cc1cc(C2=NOC(c3cc(Cl)cc(Cl)c3)(C(F)(F)F)C2)ccc1S(=O)(=O)CC(=O)NCC(F)(F)F (stereo not drawn) [Compound A51, 2-{4-[5-(3,5-Dichloro-phenyl)-5-trifluoromethyl-4,5-dihydro-isoxazol-3-yl]-2-methyl-benzenesulfonyl}-N-(2,2,2-trifluoro-ethyl)-acetamide] | ≥ 80% | ≥ 80% | ≥ 80% | – | – | 100% | – | 80% | 80% | – | 80% | 100% | ≥ 80% | ≥ 80% | 100% | ≥ 80% | ≥ 80%
Cc1cc(C2=NOC(c3cc(Cl)cc(Cl)c3)(C(F)(F)F)C2)ccc1[S+]([O-])CC(=O)NCC(F)(F)F (stereo not drawn) [Compound A50, 2-{4-[5-(3,5-Dichloro-phenyl)-5-trifluoromethyl-4,5-dihydro-isoxazol-3-yl]-2-methyl-benzenesulfinyl}-N-(2,2,2-trifluoro-ethyl)-acetamide] | ≥ 80% | ≥ 80% | ≥ 80% | – | 75% | 100% | – | 80% | 80% | – | 80% | 100% | ≥ 80% | ≥ 80% | 100% | ≥ 80% | ≥ 80%
Cc1cc(C2=NOC(c3cc(Cl)cc(Cl)c3)(C(F)(F)F)C2)ccc1SCC(=O)NCC(F)(F)F (stereo not drawn) [Compound A49, 2-{2-Methyl-4-[5-(3,5-Dichloro-phenyl)-5-trifluoromethyl-4,5-dihydro-isoxazol-3-yl]-phenylsulfanyl}-N-(2,2,2-trifluoro-ethyl)-acetamide] | ≥ 80% | ≥ 80% | ≥ 80% | – | 100% | 100% | – | 80% | 100% | – | 80% | 100% | ≥ 80% | ≥ 80% | – | ≥ 80% | ≥ 80%
